pEC50, pIC50: −log10 of the molar value.
Experiments:
THP-1 [1] = experiment: Induction of ABCA1 expression in THP1 cell line relative to TO901317; type: functional, Homo sapiens
Huh-7 [2] = experiment: Induction of SREBP1c expression in Huh7 cell line; type: functional, cell-based; details: Homo sapiens
[3] = molecular target: T1, Peroxisome proliferator-activated receptor delta (Homo sapiens, UniProt Q03181); experiment: Agonist activity at human PPAR delta by GAL4 transactivation assay; type: functional
T1 sequence (Q03181 whole entry): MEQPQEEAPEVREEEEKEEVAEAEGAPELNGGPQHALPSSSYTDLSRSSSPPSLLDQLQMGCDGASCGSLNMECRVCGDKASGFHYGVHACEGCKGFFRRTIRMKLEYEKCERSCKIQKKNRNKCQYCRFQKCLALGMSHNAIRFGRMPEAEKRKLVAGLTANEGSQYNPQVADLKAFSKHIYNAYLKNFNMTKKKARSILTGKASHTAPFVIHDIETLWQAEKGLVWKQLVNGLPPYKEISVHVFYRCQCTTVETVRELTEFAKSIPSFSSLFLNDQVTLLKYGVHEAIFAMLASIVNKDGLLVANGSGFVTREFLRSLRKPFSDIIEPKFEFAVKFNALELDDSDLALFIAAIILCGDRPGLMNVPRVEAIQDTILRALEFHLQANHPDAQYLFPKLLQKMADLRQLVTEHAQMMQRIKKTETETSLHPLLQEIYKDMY

[4] = Half life in human liver microsomes; type: ADME, Microsome
[5] = molecular target: T2, Peroxisome proliferator-activated receptor gamma (Homo sapiens, UniProt P37231)
T2 sequence (P37231 whole entry): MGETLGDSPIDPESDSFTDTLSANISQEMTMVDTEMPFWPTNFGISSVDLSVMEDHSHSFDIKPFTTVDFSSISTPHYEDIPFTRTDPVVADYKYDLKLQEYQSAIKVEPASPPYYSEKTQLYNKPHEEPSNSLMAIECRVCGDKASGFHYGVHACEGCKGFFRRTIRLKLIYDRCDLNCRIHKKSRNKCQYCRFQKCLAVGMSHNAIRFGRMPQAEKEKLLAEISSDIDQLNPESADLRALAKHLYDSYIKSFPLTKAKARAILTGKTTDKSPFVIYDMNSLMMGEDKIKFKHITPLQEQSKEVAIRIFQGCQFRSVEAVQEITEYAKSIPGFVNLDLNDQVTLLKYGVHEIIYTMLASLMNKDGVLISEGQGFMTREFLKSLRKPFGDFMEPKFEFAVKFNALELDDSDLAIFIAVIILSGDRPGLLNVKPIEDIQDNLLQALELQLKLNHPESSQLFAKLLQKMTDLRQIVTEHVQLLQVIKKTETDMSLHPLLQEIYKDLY

Huh-7 [6] = experiment: Induction of SREBP1c expression in Huh7 cell line relative to TO901317; type: functional, Homo sapiens
THP-1 [7] = experiment: Induction of ABCA1 expression in THP1 cell line; type: functional, cell-based; details: Homo sapiens
[8] = molecular target: T3, Peroxisome proliferator-activated receptor alpha (Homo sapiens, UniProt Q07869); experiment: Agonist activity at human PPAR alpha by GAL4 transactivation assay; type: functional
T3 sequence (Q07869 whole entry): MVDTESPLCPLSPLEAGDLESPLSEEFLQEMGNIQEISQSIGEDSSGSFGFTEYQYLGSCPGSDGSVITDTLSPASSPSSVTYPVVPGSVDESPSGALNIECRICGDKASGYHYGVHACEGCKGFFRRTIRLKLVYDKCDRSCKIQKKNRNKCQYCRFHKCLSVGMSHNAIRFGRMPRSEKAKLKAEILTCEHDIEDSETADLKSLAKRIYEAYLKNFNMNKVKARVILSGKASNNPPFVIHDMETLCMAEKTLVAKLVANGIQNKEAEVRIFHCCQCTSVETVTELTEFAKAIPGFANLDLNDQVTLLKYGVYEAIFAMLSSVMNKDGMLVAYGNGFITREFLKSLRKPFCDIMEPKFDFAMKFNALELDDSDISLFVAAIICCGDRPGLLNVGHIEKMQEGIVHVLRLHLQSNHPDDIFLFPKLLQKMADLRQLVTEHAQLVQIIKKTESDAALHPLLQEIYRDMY

[9] = AUC (0-infinity) in C57 mouse at 10 mg/kg, po; type: ADME, organism-based; parameters: time infinity, dose 10 mg/kg, route oral; details: plasma
THP-1 [10] = experiment: Stimulation of cholesterol efflux in THP1 cell line; type: functional, cell-based; details: Homo sapiens
Mus musculus = experiment: Reduction of atherosclerotic lesion of thoracic aorta in LDLr knockout C57BL/6 mouse at 10 mg/kg/day, po after 8 weeks relative to control; type: functional; parameters: scale not given: the % may be the effect or the level left
[11] = molecular target: T4, Oxysterols receptor LXR-alpha (Homo sapiens, UniProt Q13133)
T4 sequence (Q13133 whole entry): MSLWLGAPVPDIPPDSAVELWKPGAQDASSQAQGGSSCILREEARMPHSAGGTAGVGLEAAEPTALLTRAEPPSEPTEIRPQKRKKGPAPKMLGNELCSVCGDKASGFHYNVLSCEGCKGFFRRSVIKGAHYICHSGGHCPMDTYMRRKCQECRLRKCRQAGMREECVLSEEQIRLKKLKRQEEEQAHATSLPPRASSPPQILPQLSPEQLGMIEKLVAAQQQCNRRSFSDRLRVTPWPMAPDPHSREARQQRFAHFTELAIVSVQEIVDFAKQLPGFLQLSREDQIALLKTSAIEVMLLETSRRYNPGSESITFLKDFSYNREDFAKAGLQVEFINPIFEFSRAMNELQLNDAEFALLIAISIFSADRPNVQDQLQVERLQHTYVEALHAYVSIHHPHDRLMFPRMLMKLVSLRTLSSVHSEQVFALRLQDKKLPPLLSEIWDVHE

[12] = molecular target: T5, Oxysterols receptor LXR-beta (Homo sapiens, UniProt P55055)
T5 sequence (P55055 whole entry): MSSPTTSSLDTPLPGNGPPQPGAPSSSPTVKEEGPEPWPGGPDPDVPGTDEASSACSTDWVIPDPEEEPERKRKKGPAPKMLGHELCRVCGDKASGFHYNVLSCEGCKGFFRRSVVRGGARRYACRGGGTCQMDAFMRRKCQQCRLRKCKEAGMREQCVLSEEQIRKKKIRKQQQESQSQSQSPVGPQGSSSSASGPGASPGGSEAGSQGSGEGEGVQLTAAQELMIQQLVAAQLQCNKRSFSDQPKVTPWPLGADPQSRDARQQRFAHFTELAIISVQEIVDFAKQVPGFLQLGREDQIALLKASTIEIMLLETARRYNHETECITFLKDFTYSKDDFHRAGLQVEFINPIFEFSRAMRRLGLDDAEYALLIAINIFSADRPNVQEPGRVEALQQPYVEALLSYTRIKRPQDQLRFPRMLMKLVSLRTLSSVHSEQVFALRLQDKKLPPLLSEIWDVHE

[13] = molecular target: T4, Oxysterols receptor LXR-alpha; experiment: Agonist activity at human LXR alpha expressed in Huh7 cells by GAL4 transactivation assay; type: functional, cell-based, Huh-7
[14] = Cmax in C57 mouse at 10 mg/kg, po; type: ADME, organism-based; parameters: dose 10 mg/kg, route oral; details: in vivo
[15] = Tmax in C57 mouse at 10 mg/kg, po; type: ADME, organism-based; parameters: dose 10 mg/kg, route oral; details: in vivo
[16] = Bioavailability in C57 mouse at 10 mg/kg, po; type: ADME, organism-based; details: in vivo
[17] = molecular target: T5, Oxysterols receptor LXR-beta; experiment: Agonist activity at human LXR beta expressed in Huh7 cells by GAL4 transactivation assay; type: functional, cell-based, Huh-7
[18] = Terminal half life in C57 mouse at 10 mg/kg, po; type: ADME, organism-based; parameters: dose 10 mg/kg, route oral; details: in vivo, read-out: beta t1/2 (converted)
[19] = molecular target: T5, Oxysterols receptor LXR-beta; remark: listed apart in the source
[20] = Half life in human liver microsomes at 20 uM; type: ADME, Microsome

SMILES	pIC50 [11]	pEC50 [12]	pIC50 [19]	Efficacy (THP-1 [1]) [%]	pEC50 (Huh-7 [2])	pEC50 [3]	pEC50 [5]	Efficacy (Huh-7 [6]) [%]	pEC50 (THP-1 [7])	pEC50 [8]	Activity (Mus musculus) [%]	also measured
O=C(O)Cc1ccc(COc2cccc(-c3c(Cc4ccccc4)cnc4c(C(F)(F)F)cccc34)c2)cc1				172	7.35	6.20	6.17	106	7.26	5.88		half-life [4]: 107 min
O=C(O)Cc1ccc(CNc2cccc(-c3c(Cc4ccccc4)cnc4c(C(F)(F)F)cccc34)c2)cc1	8.12	7.48		151	7.82	5.88	6.49	73	7.48	5.89	45	AUC(0-inf) [9]: 4440 ng·h/mL; pEC50 (THP-1 [10]): 7.43; pEC50 [13]: 6.80; Cmax [14]: 3740 ng/mL; Tmax [15]: 30 min; bioavailability [16]: 67%; pEC50 [17]: 7.06; half-life [18]: 78 min
O=C(O)Cc1ccc(COc2cccc(-c3c(C(=O)c4ccccc4)cnc4c(C(F)(F)F)cccc34)c2)cc1												half-life at 20 µM [20]: 3.5 min

More lines, main results first:

pIC50 [11]	pEC50 [12]	pIC50 [19]	SMILES	Efficacy (THP-1 [1]) [%]	pEC50 (Huh-7 [2])	pEC50 [3]	pEC50 [5]	Efficacy (Huh-7 [6]) [%]	pEC50 (THP-1 [7])	pEC50 [8]	Activity (Mus musculus) [%]	also measured
< 6.00	6.53	< 6.00	COC(=O)c1ccc(COc2cccc(-c3c(C(=O)c4ccccc4)cnc4c(C(F)(F)F)cccc34)c2)cc1									
7.00	6.39	7.92	O=C(O)Cc1cccc(OCCCN(Cc2cccc(C(F)(F)F)c2Cl)CC(c2ccccc2)c2ccccc2)c1								27	
